Assay results taken from ChEMBL document CHEMBL1201861, “Genomics of Drug Sensitity in Cancer screening data, Wellcome Trust Sanger Institute”.

How the values were obtained:
CAL-85-1 = experiment: cells; format: functional, cell-based; details: Homo sapiens;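 further: growth inhibition of human CAL-85-1 cells, read out with a cell viability assay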
Description: SANGER: Inhibition of human CAL-85-1 cell growth in a cell viability assay.

CAKI-1 = experiment: cells; format: functional, cell-based; details: Homo sapiens;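 further: growth inhibition of CAKI-1 cells, measured by a cell viability assay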
Description: SANGER: Inhibition of human CAKI-1 cell growth in a cell viability assay.

SK-MES-1 = experiment: cells; format: functional, cell-based; details: Homo sapiens;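 further: growth inhibition of human SK-MES-1 cells, read out with a cell viability assay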
Description: SANGER: Inhibition of human SK-MES-1 cell growth in a cell viability assay.

MKN-45 = experiment: cells; format: functional, cell-based; details: Homo sapiens;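 further: growth inhibition of human MKN-45 cells, measured with a cell viability assay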
Description: SANGER: Inhibition of human MKN45 cell growth in a cell viability assay.

DK-MG = experiment: cells; format: functional, cell-based; details: Homo sapiens;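 further: growth inhibition of DK-MG cells, read out with a cell viability assay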
Description: SANGER: Inhibition of human DK-MG cell growth in a cell viability assay.

M14 = experiment: cells; format: functional, cell-based; details: Homo sapiens;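 further: growth inhibition of M14 cells, read out with a cell viability assay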
Description: SANGER: Inhibition of human M14 cell growth in a cell viability assay.

NALM-6 = experiment: cells; format: functional, cell-based; details: Homo sapiens;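 further: growth inhibition of NALM-6 cells, read out with a cell viability assay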
Description: SANGER: Inhibition of human NALM-6 cell growth in a cell viability assay.

MIA PaCa-2 = experiment: cells; format: functional, cell-based; details: Homo sapiens;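 further: growth inhibition of MIA PaCa-2 cells, read out with a cell viability assay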
Description: SANGER: Inhibition of human MIA-PaCa-2 cell growth in a cell viability assay.

MDA-MB-231 = experiment: cells; format: functional, cell-based; details: Homo sapiens
Description: SANGER: Inhibition of human MDA-MB-231 cell growth in a cell viability assay.

NCI-H522 = experiment: cells; format: functional, cell-based; details: Homo sapiens;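 further: cell viability assay measuring growth inhibition of human NCI-H522 cells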
Description: SANGER: Inhibition of human NCI-H522 cell growth in a cell viability assay.

IMR-5 = experiment: cells; format: functional, cell-based; details: Homo sapiens;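 further: growth inhibition of human IMR-5 cells, read out with a cell viability assay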
Description: SANGER: Inhibition of human IMR-5 cell growth in a cell viability assay.

AN3-CA = experiment: cells; format: functional, cell-based; details: Homo sapiens;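 further: growth inhibition of human AN3-CA cells measured by a cell viability assay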
Description: SANGER: Inhibition of human AN3-CA cell growth in a cell viability assay.

HuCCT-1 = experiment: cells; format: functional, cell-based, HuCCT1; details: Homo sapiens;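 further: growth inhibition of HuCCT-1 cells, read out by a cell viability assay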
Description: SANGER: Inhibition of human HuCCT1 cell growth in a cell viability assay.

SW1573 = experiment: cells; format: functional, cell-based; details: Homo sapiens;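 further: growth inhibition of SW1573 cells, read out with a cell viability assay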
Description: SANGER: Inhibition of human SW1573 cell growth in a cell viability assay.

C32 = experiment: cells; format: functional, cell-based; details: Homo sapiens;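 further: cell viability assay, with IC50 reflecting inhibition of C32 cell growth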
Description: SANGER: Inhibition of human C32 cell growth in a cell viability assay.

MDA-MB-157 = experiment: cells; format: functional, cell-based; details: Homo sapiens
Description: SANGER: Inhibition of human MDA-MB-157 cell growth in a cell viability assay.

OVCAR-3 = experiment: cells; format: functional, cell-based; details: Homo sapiens;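 further: growth inhibition of human OVCAR-3 cells, determined by a cell viability assay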
Description: SANGER: Inhibition of human OVCAR-3 cell growth in a cell viability assay.

NCI-H441 = experiment: cells; format: functional, cell-based; details: Homo sapiens;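 further: growth inhibition of NCI-H441 cells, read out with a cell viability assay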
Description: SANGER: Inhibition of human NCI-H441 cell growth in a cell viability assay.

CAL-148 = experiment: cells; format: functional, cell-based; details: Homo sapiens
Description: SANGER: Inhibition of human CAL-148 cell growth in a cell viability assay.

HCC70 = experiment: cells; format: functional, cell-based; details: Homo sapiens;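 further: cell viability assay measuring how strongly the compound suppresses proliferation of HCC70 cells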
Description: SANGER: Inhibition of human HCC70 cell growth in a cell viability assay.

KYSE-520 cell line = experiment: cells; format: functional, cell-based; details: Homo sapiens;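 further: growth inhibition of human KYSE-520 cells, read out with a viability assay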
Description: SANGER: Inhibition of human KYSE-520 cell growth in a cell viability assay.

SK-LU-1 = experiment: cells; format: functional, cell-based; details: Homo sapiens;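 further: cell viability assay measuring growth inhibition of human SK-LU-1 cells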
Description: SANGER: Inhibition of human SK-LU-1 cell growth in a cell viability assay.

S-117 = experiment: cells; format: functional, cell-based; details: Homo sapiens
Description: SANGER: Inhibition of human S-117 cell growth in a cell viability assay.

ASPC1 = experiment: cells; format: functional, cell-based; details: Homo sapiens;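 further: growth inhibition of AsPC-1 cells, read out with a cell viability assay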
Description: SANGER: Inhibition of human AsPC-1 cell growth in a cell viability assay.

CHP-212 = experiment: cells; format: functional, cell-based; details: Homo sapiens
Description: SANGER: Inhibition of human CHP-212 cell growth in a cell viability assay.

NCI-H1417 = experiment: cells; format: functional, cell-based; details: Homo sapiens;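 further: human NCI-H1417 cells, growth inhibition determined with a cell viability readout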
Description: SANGER: Inhibition of human NCI-H1417 cell growth in a cell viability assay.

SAOS-2 = experiment: cells; format: functional, cell-based; details: Homo sapiens;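 further: growth inhibition of human Saos-2 cells determined by a cell viability assay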
Description: SANGER: Inhibition of human Saos-2 cell growth in a cell viability assay.

LB647-SCLC = experiment: cells; format: functional, cell-based; details: Homo sapiens;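 further: cell growth inhibition, read out by a viability assay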
Description: SANGER: Inhibition of human LB647-SCLC cell growth in a cell viability assay.

MG-63 = experiment: cells; format: functional, cell-based; details: Homo sapiens;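 further: growth inhibition of human MG-63 cells, read out with a cell viability assay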
Description: SANGER: Inhibition of human MG-63 cell growth in a cell viability assay.

MCF7 = experiment: cells; format: functional, cell-based; details: Homo sapiens;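 further: growth inhibition of human MCF7 cells, read out with a cell viability assay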
Description: SANGER: Inhibition of human MCF7 cell growth in a cell viability assay.

A204 = experiment: cells; format: functional, cell-based; details: Homo sapiens;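 further: growth inhibition of human A204 cells, read out with a cell viability assay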
Description: SANGER: Inhibition of human A204 cell growth in a cell viability assay.

OVCAR-8 = experiment: cells; format: functional, cell-based; details: Homo sapiens;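 further: growth inhibition of human OVCAR-8 cells, read out by a cell viability assay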
Description: SANGER: Inhibition of human OVCAR-8 cell growth in a cell viability assay.

UO-31 = experiment: cells; format: functional, cell-based; details: Homo sapiens
Description: SANGER: Inhibition of human U031 cell growth in a cell viability assay.

CMK = experiment: cells; format: functional, cell-based; details: Homo sapiens;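 further: growth inhibition of CMK cells, read out as cell viability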
Description: SANGER: Inhibition of human CMK cell growth in a cell viability assay.

CESS = experiment: SANGER: Inhibition of human CESS cell growth in a cell viability assay.; format: functional, cell-based
COLO-741 = experiment: cells; format: functional, cell-based; details: Homo sapiens
Description: SANGER: Inhibition of human COLO-741 cell growth in a cell viability assay.

JIYOYE = experiment: cells; format: functional, cell-based; details: Homo sapiens
Description: SANGER: Inhibition of human JiyoyeP-2003 cell growth in a cell viability assay.

CAMA-1 = experiment: cells; format: functional, cell-based; details: Homo sapiens;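 further: growth inhibition of CAMA-1 cells, read out with a cell viability assay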
Description: SANGER: Inhibition of human CAMA-1 cell growth in a cell viability assay.

KP-N-YN = experiment: cells; format: functional, cell-based; details: Homo sapiens;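 further: growth inhibition of KP-N-YN cells, read out with a cell viability assay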
Description: SANGER: Inhibition of human KP-N-YN cell growth in a cell viability assay.

SW756 = experiment: cells; format: functional, cell-based; details: Homo sapiens;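 further: growth inhibition of human SW756 cells, read out with a cell viability assay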
Description: SANGER: Inhibition of human SW756 cell growth in a cell viability assay.

KYSE-70 cell line = experiment: cells; format: functional, cell-based; details: Homo sapiens;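 further: cell viability assay read-out, with IC50 expressing suppression of KYSE-70 cell growth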
Description: SANGER: Inhibition of human KYSE-70 cell growth in a cell viability assay.

P12-Ichikawa = experiment: cells; format: functional, cell-based; details: Homo sapiens
NCI-H810 = experiment: cells; format: functional, cell-based; details: Homo sapiens;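 further: IC50 reflects inhibition of cancer cell line growth, read out with a cell viability assay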
Description: SANGER: Inhibition of human NCI-H810 cell growth in a cell viability assay.

HCC38 = experiment: cells; format: functional, cell-based; details: Homo sapiens;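 further: cell viability assay on the human HCC38 cell line, with IC50 marking the concentration that inhibits cell growth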
Description: SANGER: Inhibition of human HCC38 cell growth in a cell viability assay.

G-402 = experiment: cells; format: functional, cell-based; details: Homo sapiens
Description: SANGER: Inhibition of human G-402 cell growth in a cell viability assay.

PC-3 = experiment: cells; format: functional, cell-based; details: Homo sapiens;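 further: cell viability assay measuring growth inhibition of PC-3 cells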
Description: SANGER: Inhibition of human PC-3 cell growth in a cell viability assay.

MC-IXC = experiment: cells; format: functional, cell-based; details: Homo sapiens;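 further: growth inhibition of MC-IXC cells, read out with a cell viability assay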
Description: SANGER: Inhibition of human MC-IXC cell growth in a cell viability assay.

HEC-1 = experiment: cells; format: functional, cell-based; details: Homo sapiens;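 further: growth inhibition of the cell line, read out with a cell viability assay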
Description: SANGER: Inhibition of human HEC-1 cell growth in a cell viability assay.

TCC-SUP = experiment: cells; format: functional, cell-based; details: Homo sapiens;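 further: growth inhibition of TCC-SUP cells, read out with a cell viability assay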
Description: SANGER: Inhibition of human TCCSUP cell growth in a cell viability assay.

LCLC-103H cell line = experiment: cells; format: functional, cell-based; details: Homo sapiens
Description: SANGER: Inhibition of human LCLC-103H cell growth in a cell viability assay.

OAW-28 = experiment: cells; format: functional, cell-based; details: Homo sapiens;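 further: growth inhibition of OAW-28 cells, read out with a cell viability assay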
Description: SANGER: Inhibition of human OAW-28 cell growth in a cell viability assay.

RVH-421 = experiment: cells; format: functional, cell-based; details: Homo sapiens
Description: SANGER: Inhibition of human RVH-421 cell growth in a cell viability assay.

BL-70 = experiment: SANGER: Inhibition of human BL-70 cell growth in a cell viability assay.; format: functional, cell-based
Daoy = experiment: cells; format: functional, cell-based; details: Homo sapiens;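 further: daoy cell growth inhibition, read out as cell viability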
Description: SANGER: Inhibition of human Daoy cell growth in a cell viability assay.

NCI-H2122 = experiment: cells; format: functional, cell-based; details: Homo sapiens;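 further: growth inhibition of the cells, read out with a cell viability assay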
Description: SANGER: Inhibition of human NCI-H2122 cell growth in a cell viability assay.

MDA-MB-175-VII = experiment: cells; format: functional, cell-based; details: Homo sapiens
L-540 = experiment: cells; format: functional, cell-based; details: Homo sapiens;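 further: growth inhibition of the human L-540 cell line, read out with a viability assay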
Description: SANGER: Inhibition of human L-540 cell growth in a cell viability assay.

NCI-H64 = experiment: cells; format: functional, cell-based; details: Homo sapiens;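 further: growth inhibition of NCI-H64 cells, read out with a cell viability assay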
Description: SANGER: Inhibition of human NCI-H64 cell growth in a cell viability assay.

PFSK-1 = experiment: cells; format: functional, cell-based; details: Homo sapiens;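 further: cell viability assay measuring how strongly compounds suppress growth of human PFSK-1 cells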
Description: SANGER: Inhibition of human PFSK-1 cell growth in a cell viability assay.

LP-1 = experiment: cells; format: functional, cell-based; details: Homo sapiens;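 further: growth inhibition of human LP-1 cells, with the read-out taken from a cell viability assay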
Description: SANGER: Inhibition of human LP-1 cell growth in a cell viability assay.

NCI-H1522 = experiment: cells; format: functional, cell-based; details: Homo sapiens;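 further: growth inhibition of NCI-H1522 cells, read out with a cell viability assay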
Description: SANGER: Inhibition of human NCI-H1522 cell growth in a cell viability assay.

RT-112 = experiment: cells; format: functional, cell-based; details: Homo sapiens
Description: SANGER: Inhibition of human RT-112 cell growth in a cell viability assay.

UACC-62 = experiment: cells; format: functional, cell-based; details: Homo sapiens;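 further: growth inhibition of human UACC-62 cells, read out by a cell viability assay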
Description: SANGER: Inhibition of human UACC-62 cell growth in a cell viability assay.

RPMI-2650 = experiment: cells; format: functional, cell-based; details: Homo sapiens
Description: SANGER: Inhibition of human RPMI-2650 cell growth in a cell viability assay.

CCNC(=O)c1noc(-c2cc(C(C)C)c(O)cc2O)c1-c1ccc(CN2CCOCC2)cc1 [LUMINESPIB]
IC50 (CAL-85-1): 0.0119 µM
IC50 (CAKI-1): 0.251 µM
IC50 (SK-MES-1): 0.00945 µM
IC50 (MKN-45): 0.206 µM
IC50 (DK-MG): 0.0753 µM
IC50 (M14): 0.218 µM
IC50 (NALM-6): 0.000842 µM
IC50 (MIA PaCa-2): 0.0151 µM
IC50 (MDA-MB-231): 0.0908 µM
IC50 (NCI-H522): 0.0194 µM
IC50 (IMR-5): 0.0449 µM
IC50 (AN3-CA): 0.0102 µM
IC50 (HuCCT-1): 0.0296 µM
IC50 (SW1573): 0.058 µM
IC50 (C32): > 0.256 µM
IC50 (MDA-MB-157): > 0.256 µM
IC50 (OVCAR-3): 0.141 µM
IC50 (NCI-H441): 0.109 µM
IC50 (CAL-148): 0.243 µM
IC50 (HCC70): 0.0545 µM
IC50 (KYSE-520 cell line): 0.0261 µM
IC50 (SK-LU-1): 0.0185 µM
IC50 (S-117): 0.127 µM
IC50 (ASPC1): > 0.256 µM
IC50 (CHP-212): 0.0221 µM
IC50 (NCI-H1417): 0.0489 µM
IC50 (SAOS-2): 0.076 µM
IC50 (LB647-SCLC): 0.24 µM
IC50 (MG-63): 0.0187 µM
IC50 (MCF7): 0.00335 µM
IC50 (A204): 0.0212 µM
IC50 (OVCAR-8): 0.0328 µM
IC50 (UO-31): 0.0477 µM
IC50 (CMK): < 0.001 µM
IC50 (CESS): 0.0312 µM
IC50 (COLO-741): 0.0553 µM
IC50 (JIYOYE): 0.0339 µM
IC50 (CAMA-1): 0.063 µM
IC50 (KP-N-YN): > 0.256 µM
IC50 (SW756): 0.0416 µM
IC50 (KYSE-70 cell line): 0.0381 µM
IC50 (P12-Ichikawa): > 0.256 µM
IC50 (NCI-H810): 0.0172 µM
IC50 (HCC38): 0.0377 µM
IC50 (G-402): 0.0361 µM
IC50 (PC-3): 0.132 µM
IC50 (MC-IXC): 0.0174 µM
IC50 (HEC-1): 0.0716 µM
IC50 (TCC-SUP): > 0.256 µM
IC50 (LCLC-103H cell line): 0.0043 µM
IC50 (OAW-28): > 0.256 µM
IC50 (RVH-421): 0.0196 µM
IC50 (BL-70): 0.0339 µM
IC50 (Daoy): 0.00695 µM
IC50 (NCI-H2122): 0.0138 µM
IC50 (MDA-MB-175-VII): > 0.256 µM
IC50 (L-540): > 0.256 µM
IC50 (NCI-H64): > 0.256 µM
IC50 (PFSK-1): 0.103 µM
IC50 (LP-1): > 0.256 µM
IC50 (NCI-H1522): 0.148 µM
IC50 (RT-112): 0.00535 µM
IC50 (UACC-62): 0.121 µM
IC50 (RPMI-2650): 0.0143 µM

C/C=C(/C)C(=O)O[C@H]1C(C)=C2[C@H]([C@@H]1OC(=O)CCCCCCC)[C@@](C)(OC(C)=O)C[C@H](OC(=O)CCC)[C@@]1(O)[C@H]2OC(=O)[C@@]1(C)O [THAPSIGARGIN]
IC50 (CAL-85-1): 0.00603 µM
IC50 (CAKI-1): 0.0834 µM
IC50 (SK-MES-1): < 0.002 µM
IC50 (MKN-45): 0.0254 µM
IC50 (DK-MG): 0.0472 µM
IC50 (M14): 0.014 µM
IC50 (NALM-6): < 0.002 µM
IC50 (MIA PaCa-2): 0.0033 µM
IC50 (MDA-MB-231): 0.000557 µM
IC50 (NCI-H522): 0.00543 µM
IC50 (IMR-5): 0.0156 µM
IC50 (AN3-CA): < 0.002 µM
IC50 (HuCCT-1): 0.00433 µM
IC50 (SW1573): 0.0311 µM
IC50 (C32): 0.309 µM
IC50 (MDA-MB-157): > 0.512 µM
IC50 (OVCAR-3): < 0.002 µM
IC50 (NCI-H441): 0.0126 µM
IC50 (CAL-148): > 0.512 µM
IC50 (HCC70): 0.0226 µM
IC50 (KYSE-520 cell line): 0.0207 µM
IC50 (SK-LU-1): 0.00116 µM
IC50 (S-117): 0.0409 µM
IC50 (ASPC1): > 0.512 µM
IC50 (CHP-212): 0.003 µM
IC50 (NCI-H1417): > 0.512 µM
IC50 (SAOS-2): 0.0147 µM
IC50 (LB647-SCLC): 0.00486 µM
IC50 (MG-63): 0.00279 µM
IC50 (MCF7): < 0.002 µM
IC50 (A204): 0.0173 µM
IC50 (OVCAR-8): 0.025 µM
IC50 (UO-31): 0.0577 µM
IC50 (CMK): 0.0333 µM
IC50 (CESS): 0.0354 µM
IC50 (COLO-741): 0.0109 µM
IC50 (JIYOYE): 0.00721 µM
IC50 (CAMA-1): 0.0105 µM
IC50 (KP-N-YN): 0.027 µM
IC50 (SW756): 0.0127 µM
IC50 (KYSE-70 cell line): < 0.002 µM
IC50 (P12-Ichikawa): 0.0245 µM
IC50 (NCI-H810): 0.00714 µM
IC50 (HCC38): 0.00137 µM
IC50 (G-402): 0.00395 µM
IC50 (PC-3): 0.008 µM
IC50 (MC-IXC): 0.0376 µM
IC50 (HEC-1): 0.0404 µM
IC50 (TCC-SUP): 0.0516 µM
IC50 (LCLC-103H cell line): < 0.002 µM
IC50 (OAW-28): 0.0503 µM
IC50 (RVH-421): 0.00367 µM
IC50 (BL-70): 0.00882 µM
IC50 (Daoy): 0.00534 µM
IC50 (NCI-H2122): 0.00449 µM
IC50 (MDA-MB-175-VII): 0.33 µM
IC50 (L-540): 0.0752 µM
IC50 (NCI-H64): 0.00645 µM
IC50 (PFSK-1): 0.0128 µM
IC50 (LP-1): 0.00408 µM
IC50 (NCI-H1522): > 0.512 µM
IC50 (RT-112): 0.00422 µM
IC50 (UACC-62): 0.0664 µM
IC50 (RPMI-2650): 0.00274 µM
